In patent US9700522B2, “Transdermal patch and method for delivery of vitamin B12” (Vita Sciences LLC, priority 2007, dated 2017):

What was measured:
[1] = system: skin; assay: skin irritation on wear of patch with nicotinate enhancer; type: in vivo; conditions: benzylnicotinate substituted for methylnicotinate in the patch enhancer system
From the text: (§1) Permeation enhancers identified as useful for this product included nicotinates (methyl and benzyl), fatty acids (oleic acid, undecanioic acid, lauric acid), fatty alcohols (octanol and nonanol), terpenes (menthol, limonene, and menthone), and polyols (polyethylene glycol, propylene glycol, and glycerol). In an early trial, a binary enhancer system of methylnicotinate and propylene glycol was used but the inventor observed that the methylnicotinate crystallized after about 3-4 months in the patch.

[2] = early trial of patch with binary enhancer system: crystallization of enhancer in the patch on storage; type: physicochemical; conditions: binary enhancer system of methylnicotinate and propylene glycol in vitamin B12 patch
From the text: as §1

[3] = system: skin; assay: permeation enhancement of vitamin B12 from the patch; conditions: in conjunction with propylene glycol
From the text: as §1

Structure (SMILES): O=C(OCc1ccccc1)c1cccnc1 [benzylnicotinate]
- skin irritation [1]: severe and unacceptable skin irritation

Structure (SMILES): COC(=O)c1cccnc1 [methylnicotinate]
- time after which the enhancer crystallized in the patch [2]: 3-4 months

Structure (SMILES): CC(C)[C@@H]1CC[C@@H](C)CC1=O [menthone]
- permeation enhancer performance [3]: excellent permeation enhancer
